Experimental data taken from patent publication US20150105252A1, “SUBSTITUTED PYRAZOLES AS HERBICIDES” (E I DU PONT DE NEMOURS AND COMPANY, priority 2013, published 2015).

Columns and labels:
ryegrass, Italian = assay: Test C preemergence; type: in vivo, Lolium multiflorum
Outline: (§1)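 In this greenhouse assay, seeded soil (loam plus sand) or emerged seedlings in peat-vermiculite medium were treated with formulated compound. Roughly two weeks later (13–15 days), each species was scored visually relative to controls, from 0 for no effect to 100 for complete control.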

foxtail, giant = assay: Test C postemergence; type: in vivo, Setaria faberii; conditions: for Plant response rating (scale of 0 to 100 where 0 is no effect and 100 is complete control), Foxtail, Giant: Postemergence, 31 g ai/ha, visually evaluated after 13 to 15 days; for Foxtail, Giant plant response rating / Plant response rating, Foxtail, Giant: postemergence; for Foxtail, Giant plant response rating: 62 g ai/ha, scale 0 to 100
Outline: as §1

oat, wild = assay: Test C postemergence; type: in vivo, Avena fatua; conditions: for Plant response rating (scale of 0 to 100 where 0 is no effect and 100 is complete control), Oat, Wild: Postemergence, 31 g ai/ha, visually evaluated after 13 to 15 days; for Oat, Wild plant response rating / Plant response rating, Oat, Wild: postemergence; for Oat, Wild plant response rating: 62 g ai/ha, scale 0 to 100
Outline: as §1

corn = assay: Test A postemergence; type: in vivo, Zea mays
Outline: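 Greenhouse test in loam soil/sand blend; compounds formulated in non-phytotoxic solvent with surfactant, applied as preemergence directed soil spray or postemergence to plants 2–10 cm tall at one- to two-leaf stage. Injury rated visually versus untreated controls after approximately 10 days on a 0 (no effect) to 100 (complete control) scale.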

crabgrass, large = assay: Test C preemergence; type: in vivo, Digitaria sanguinalis
Outline: as §1

chickweed = assay: Test C postemergence; type: in vivo, Stellaria media; conditions: for Plant response rating (scale of 0 to 100 where 0 is no effect and 100 is complete control), Chickweed: Postemergence, 31 g ai/ha, visually evaluated after 13 to 15 days; for Chickweed plant response rating / Plant response rating, Chickweed: postemergence; for Chickweed plant response rating: 62 g ai/ha, scale 0 to 100
Outline: as §1

sedge, umbrella = assay: Test B flood; type: in vivo, Cyperus difformis; conditions: 250 g ai/ha, visual rating on 0 to 100 scale (0 no effect, 100 complete control), 13 to 15 days
Outline: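 2-leaf plants; pots flooded 3 cm over soil; compound added to paddy water, depth kept constant. Greenhouse 13–15 d. Visual rating vs controls, 0–100 scale (100 = complete control); dash = no result.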

ragweed = assay: Test C postemergence; type: in vivo, Ambrosia elation; conditions: for Plant response rating (scale of 0 to 100 where 0 is no effect and 100 is complete control), Ragweed: Postemergence, 31 g ai/ha, visually evaluated after 13 to 15 days; for Ragweed plant response rating / Plant response rating, Ragweed: postemergence; for Ragweed plant response rating: 62 g ai/ha, scale 0 to 100
Outline: as §1

wheat = assay: Test C postemergence; type: in vivo, Triticum aestivum; conditions: for Plant response rating (scale of 0 to 100 where 0 is no effect and 100 is complete control), Wheat: Postemergence, 31 g ai/ha, visually evaluated after 13 to 15 days; for Wheat plant response rating / Plant response rating, Wheat: postemergence; for Wheat plant response rating: 62 g ai/ha, scale 0 to 100
Outline: as §1

pigweed = assay: Test C postemergence; type: in vivo, Amaranthus retroflexus; conditions: for Plant response rating (scale of 0 to 100 where 0 is no effect and 100 is complete control), Pigweed: Postemergence, 31 g ai/ha, visually evaluated after 13 to 15 days; for Pigweed plant response rating / Plant response rating, Pigweed: postemergence; for Pigweed plant response rating: 62 g ai/ha, scale 0 to 100
Outline: as §1

galium = assay: Test C preemergence; type: in vivo, Galium aparine
Outline: as §1

morningglory = assay: Test C postemergence; type: in vivo, Ipomoea coccinea; conditions: for Plant response rating (scale of 0 to 100 where 0 is no effect and 100 is complete control), Morningglory: Postemergence, 31 g ai/ha, visually evaluated after 13 to 15 days; for Morningglory plant response rating / Plant response rating, Morningglory: postemergence; for Morningglory plant response rating: 62 g ai/ha, scale 0 to 100
Outline: as §1

[1] = preemergence, 31 g ai/ha, visual rating, scale 0 to 100 (0 no effect, 100 complete control), 13 to 15 days
[2] = preemergence, 62 g ai/ha, scale 0 to 100 (0 no effect, 100 complete control), 13 to 15 days
[3] = preemergence, 125 g ai/ha, scale 0 to 100, 0 is no effect, 100 is complete control
[4] = 250 g ai/ha, scale 0 to 100 (0 no effect, 100 complete control)
[5] = 125 g ai/ha, scale 0 to 100, 0 no effect, 100 complete control
[6] = Postemergence, 500 g ai/ha, 0 to 100 scale (0 no effect, 100 complete control)
[7] = postemergence, 125 g ai/ha, about 10 days, visual rating on 0 to 100 scale (0 no effect, 100 complete control)
[8] = preemergence, 125 g ai/ha, 13 to 15 days, scale 0 to 100, 0 = no effect, 100 = complete control
[9] = preemergence, 250 g ai/ha, scale 0 to 100, 0 is no effect, 100 is complete control

## CCc1cc(C(=O)NOC(C)C)nn1Cc1ccnc(OC(F)F)c1 [Compound 126]
ryegrass, Italian; Preemergence, 250 g ai/ha
  Plant response rating (scale of 0 to 100), Ryegrass, Italian: 90
ryegrass, Italian; [1]
  Ryegrass, Italian plant response rating: 15
ryegrass, Italian; [2]
  Ryegrass, Italian plant response rating: 60
ryegrass, Italian; [3]
  Ryegrass, Italian plant response rating: 90
foxtail, giant
  Plant response rating (scale of 0 to 100 where 0 is no effect and 100 is complete control), Foxtail, Giant: 10
  Foxtail, Giant plant response rating: 20
foxtail, giant; [4]
  Plant response rating, Foxtail, Giant: 60
foxtail, giant; [5]
  Plant response rating, Foxtail, Giant: 20
oat, wild
  Plant response rating (scale of 0 to 100 where 0 is no effect and 100 is complete control), Oat, Wild: 35
  Oat, Wild plant response rating: 15
oat, wild; [4]
  Plant response rating, Oat, Wild: 50
oat, wild; [5]
  Plant response rating, Oat, Wild: 20
corn; [6]
  Corn plant response rating: 90
corn; [7]
  Corn plant response rating: 90
crabgrass, large; Preemergence, 250 g ai/ha
  Plant response rating (scale of 0 to 100), Crabgrass, Large: 100
crabgrass, large; [1]
  Crabgrass, Large plant response rating: 90
crabgrass, large; [2]
  Crabgrass, Large plant response rating: 100
crabgrass, large; [3]
  Crabgrass, Large plant response rating: 100
chickweed
  Plant response rating (scale of 0 to 100 where 0 is no effect and 100 is complete control), Chickweed: 60
  Chickweed plant response rating: 70
chickweed; [4]
  Plant response rating, Chickweed: 85
chickweed; [5]
  Plant response rating, Chickweed: 80
sedge, umbrella
  Plant response rating, Sedge, Umbrella: 95
ragweed
  Plant response rating (scale of 0 to 100 where 0 is no effect and 100 is complete control), Ragweed: 30
  Ragweed plant response rating: 35
ragweed; [4]
  Plant response rating, Ragweed: 80
ragweed; [5]
  Plant response rating, Ragweed: 55
wheat
  Plant response rating (scale of 0 to 100 where 0 is no effect and 100 is complete control), Wheat: 5
  Wheat plant response rating: 5
wheat; [4]
  Plant response rating, Wheat: 5
wheat; [5]
  Plant response rating, Wheat: 5
pigweed
  Plant response rating (scale of 0 to 100 where 0 is no effect and 100 is complete control), Pigweed: 25
  Pigweed plant response rating: 50
pigweed; [4]
  Plant response rating, Pigweed: 65
pigweed; [5]
  Plant response rating, Pigweed: 40
galium; Preemergence, 250 g ai/ha
  Plant response rating (scale of 0 to 100), Galium: 100
galium; [1]
  Galium plant response rating: 85
galium; [2]
  Galium plant response rating: 98
galium; [3]
  Galium plant response rating: 100
morningglory
  Plant response rating (scale of 0 to 100 where 0 is no effect and 100 is complete control), Morningglory: 40
  Morningglory plant response rating: 60
morningglory; [4]
  Plant response rating, Morningglory: 80
morningglory; [5]
  Plant response rating, Morningglory: 80

## CCCNC(=O)c1cc(OCC)n(Cc2ccnc(OC(F)F)c2)n1 [Compound 136]
ryegrass, Italian; [1]
  Ryegrass, Italian plant response rating: 55
ryegrass, Italian; [2]
  Ryegrass, Italian plant response rating: 90
ryegrass, Italian; [8]
  Plant response rating, Ryegrass, Italian: 95
ryegrass, Italian; [9]
  Ryegrass, Italian plant response rating: 95
foxtail, giant
  Plant response rating (scale of 0 to 100 where 0 is no effect and 100 is complete control), Foxtail, Giant: 30
  Foxtail, Giant plant response rating: 30
foxtail, giant; [4]
  Plant response rating, Foxtail, Giant: 70
foxtail, giant; [5]
  Plant response rating, Foxtail, Giant: 40
oat, wild
  Plant response rating (scale of 0 to 100 where 0 is no effect and 100 is complete control), Oat, Wild: 5
  Oat, Wild plant response rating: 5
oat, wild; [4]
  Plant response rating, Oat, Wild: 45
oat, wild; [5]
  Plant response rating, Oat, Wild: 10
corn; [6]
  Corn plant response rating: 100
corn; [7]
  Corn plant response rating: 60
crabgrass, large; [1]
  Crabgrass, Large plant response rating: 100
crabgrass, large; [2]
  Crabgrass, Large plant response rating: 100
crabgrass, large; [8]
  Plant response rating, Crabgrass, Large: 100
crabgrass, large; [9]
  Crabgrass, Large plant response rating: 100
chickweed
  Plant response rating (scale of 0 to 100 where 0 is no effect and 100 is complete control), Chickweed: 100
  Chickweed plant response rating: 100
chickweed; [4]
  Plant response rating, Chickweed: 100
chickweed; [5]
  Plant response rating, Chickweed: 100
sedge, umbrella
  Plant response rating, Sedge, Umbrella: 80
ragweed
  Plant response rating (scale of 0 to 100 where 0 is no effect and 100 is complete control), Ragweed: 15
  Ragweed plant response rating: 35
ragweed; [4]
  Plant response rating, Ragweed: 70
ragweed; [5]
  Plant response rating, Ragweed: 40
wheat
  Plant response rating (scale of 0 to 100 where 0 is no effect and 100 is complete control), Wheat: 5
  Wheat plant response rating: 5
wheat; [4]
  Plant response rating, Wheat: 15
wheat; [5]
  Plant response rating, Wheat: 10
pigweed
  Plant response rating (scale of 0 to 100 where 0 is no effect and 100 is complete control), Pigweed: 40
  Pigweed plant response rating: 65
pigweed; [4]
  Plant response rating, Pigweed: 80
pigweed; [5]
  Plant response rating, Pigweed: 70
galium; [1]
  Galium plant response rating: 85
galium; [2]
  Galium plant response rating: 100
galium; [8]
  Plant response rating, Galium: 100
galium; [9]
  Galium plant response rating: 100
morningglory
  Plant response rating (scale of 0 to 100 where 0 is no effect and 100 is complete control), Morningglory: 90
  Morningglory plant response rating: 98
morningglory; [4]
  Plant response rating, Morningglory: 100
morningglory; [5]
  Plant response rating, Morningglory: 95
